Assay results reported in patent publication US5063245A, “Corticotropin-releasing factor antagonism compounds” (Nova Pharmaceutical Corporation, priority 1990, dated 1991).
Counter-ions that a name gives are not always drawn. Like-named read-outs stand apart in the source and are kept apart here.

Experiments:
CRF receptor = target: T1, CRF receptor (Rattus norvegicus, UniProt P35353); experiment: In vitro receptor binding: inhibition of specific binding of [125I]tyrosine-oCRF to rat cerebral cortex membranes; conditions: [125I]Tyr-oCRF 50-100 pM, 2 hours at room temperature
T1 construct: the cerebral cortex was removed and the tissue homogenized; from tissue; host or cells: cerebral cortex membranes of male Sprague-Dawley rats
T1 sequence (P35353 24-415): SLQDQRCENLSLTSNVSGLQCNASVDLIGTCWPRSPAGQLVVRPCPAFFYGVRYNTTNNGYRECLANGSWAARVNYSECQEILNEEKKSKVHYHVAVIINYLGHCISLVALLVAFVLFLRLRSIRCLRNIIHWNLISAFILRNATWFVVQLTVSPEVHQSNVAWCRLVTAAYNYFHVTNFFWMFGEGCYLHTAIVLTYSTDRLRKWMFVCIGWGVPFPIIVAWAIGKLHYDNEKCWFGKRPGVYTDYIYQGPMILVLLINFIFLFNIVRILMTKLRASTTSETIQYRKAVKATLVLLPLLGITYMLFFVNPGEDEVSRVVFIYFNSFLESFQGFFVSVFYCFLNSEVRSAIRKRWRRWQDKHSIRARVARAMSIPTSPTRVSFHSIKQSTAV
Experimental: The potency of the compounds of the invention as inhibitors of the specific binding of radiolabeled CRF to rat cerebral cortex membranes was examined using a standard in vitro radioligand binding technique. […] The homogenate was centrifuged at 48,000×g for 10 minutes at 4° C. The supernatant was removed, the tissue pellet suspended in the original volume of fresh homogenization buffer using a Polytron and centrifuged as before. […] Incubation buffer consists of 50 mM Hepes (pH 7.0 at 22° C.) containing 10 mM MgCl2, 2 mM EGTA, 0.1 mM bacitracin, 100 KIU (kallikrein inhibitor units)/mL aprotinin and 0.1% BSA (bovine serum albumin). […] Nonspecific binding was determined in the presence of 1 μM oCRF. The binding reaction was allowed to proceed for 2 hours at room temperature. Bound radioligand was separated from the incubation medium by centrifugation in a Beckman microfuge for 5 minutes at 12,000×g. The supernatant was aspirated and the resulting pellet was washed with 1 mL of cold phosphate buffered saline (pH 7.2) containing 0.01% of Triton X-100.
Tyr-oCRF to rat cortical membranes was determined on at least three separate occasions using 8-10 concentrations of each compound and utilizing triplicate incubations. The IC50 and apparent Hill coefficient for each compound were calculated using a computer-assisted log-logit analysis.

[1] = target: CRF-stimulated adenylate cyclase; experiment: Inhibition of CRF-stimulated adenylate cyclase activity (rat frontal cortex); type: biochemical; conditions: Table I, Formula I; 1 μM oCRF; 37° C., 10 minutes
Source text: CRF antagonist activity is established by the ability of the compounds to antagonize CRF-stimulated adenylate cyclase activity, it having been established that CRF receptors are coupled to a guanine nucleotide regulatory protein that activates adenylate cyclase [G. Aguilera et al., Neuroendocrinology, 43, 79 (1986); G. Battaglia et al., Synapse, 1, 572 (1987)].
Male Sprague-Dawley rats (175-250 g) were sacrificed by decapitation, the frontal cortex was dissected and homogenized in 30 volumes (w/v) of ice-cold buffer (50 mM Tris HCl, 10 mM MgCl2, 2 mM EGTA; pH 7.2 at 22° C.). The homogenate was centrifuged at 40,000×g for 3 minutes (4° C.), the supernatant discarded and the pellet resuspended in original volume of fresh homogenization buffer. Following centrifugation at 40,000×g for 30 minutes, the resulting pellet was suspended to a tissue concentration of 20 mg original wet weight of tissue per mL (approximately 40-60 μg protein/mL). For determination of basal adenylate cyclase activity, assays are carried out at 37° C. for 10 minutes in 250 μL of buffer containing 100 mM Tris HCl, 10 mM MgCl2, 0.4 mM EGTA, 0.1% BSA, 1 mM isobutylmethylxanthine (IBMX), 3 units/tube phosphocreatine kinase, 5 mM creatine phosphate, 100 μM guanosine. Maximal stimulation of adenylate cyclase activity was accomplished by the addition of 10^-6 M oCRF. Stimulated enzyme activity generally represented a 75-95% increase over basal levels. Reactions were initiated by the addition of tissue and terminated by the addition of 150 μL of 50 mM Tris HCl, 45 mM ATP, 2% sodium dodecyl sulfate (SDS), and [^3 H] cAMP (approximately 40,000 dpm). The [^3 H]cAMP was added to each assay tube to monitor recovery of cAMP during subsequent chromatography steps. Separation of [^32 P]cAMP from [^32 P]ATP was accomplished by sequential elution over Dowex and alumina columns. The eluate (4 mL) was collected in 20 mL scintillation vials to which 8 mL of Beckman EP fluor was added. Vials were shaken for 30 minutes prior to measuring ^3 H and ^32 P by scintillation counting. All data were fed directly from the liquid scintillation counter via RS232 port to a VAX 8300 computer. Individual data points were expressed as pmoles of cAMP formed/10 minutes/mg protein. Protein content of tissue samples was measured using the BioRad method with bovine serum albumin serving as the standard.
Determination of antagonist activity was accomplished by addition of at least six concentrations of the compound (10^-8 -10^-4 M), evaluated in triplicate, in the presence of a maximally stimulating concentration of oCRF (1 μM). IC50 values were derived from a log-logit transformation of the data on a Vax 8300.

[2] = Inhibition of CRF Binding, Rat Cerebral Cortex Membrane, IC50, Table I, Formula I
[3] = Table I, Formula I, read-out: Inhibition of CRF Binding, Rat Cerebral Cortex Membrane, IC50
[4] = Table II, Formula II (disulfides), read-out: Inhibition of CRF Binding, Rat Cerebral Cortex Membrane, IC50

Structure (SMILES) | IC50 (CRF receptor; [2]) | IC50 [1] | IC50 (CRF receptor; [3]) | IC50 (CRF receptor; [4])
Cc1c(SC#N)c(=O)n(C)n1Cc1ccccc1 [2-benzyl-1,3-dimethyl-5-oxo-3-pyrazolin-4-yl thiocyanate, hemifumarate] | 33.6 µM | 40.1 µM |  | 
Cc1c(SC#N)c(=O)n(-c2c(Cl)cccc2Cl)n1C [Formula I: 2,6-Cl2 Ph, CH3, CH3, SCN, 2,3-dimethyl-5-oxo-1-(2,6-dichlorophenyl)-3-pyrazolin-4-yl thiocyanate] | 18.9 µM | 29.9 µM |  | 
Cc1c(SC#N)c(=O)n(-c2ccc3ccccc3c2)n1C [Formula I: 2-Naphthyl, CH3, CH3, SCN, 2,3-dimethyl-1-naphthyl-5-oxo-3-pyrazolin-4-yl thiocyanate] |  |  | 3.8 µM | 
CCn1c(C)c(SC#N)c(=O)n1-c1ccc(Cl)c(Cl)c1 [Formula I: 3,4 Cl2 Ph, C2 H5, CH3, SCN, 2-ethyl-3-methyl-5-oxo-1-(3,4-dichlorophenyl)-3-pyrazolin-4-yl thiocyanate] | 4.9 µM | 1.4 µM |  | 
Cc1c(SC#N)c(=O)n(-c2cccc(C#N)c2)n1C [Formula I: 3-CNPh, CH3, CH3, SCN, 2,3-dimethyl-5-oxo-1-(3-cyanophenyl)-3-pyrazolin-4-yl thiocyanate] |  | 6.9 µM | 15.5 µM | 
CCn1c(C)c(SC#N)c(=O)n1-c1cccc(Cl)c1 [Formula I: 3-ClPh, C2 H5, CH3, SCN, 2-ethyl-3-methyl-5-oxo-1-(3-chlorophenyl)-3-pyrazolin-4-yl thiocyanate] |  | 6.9 µM | 7.4 µM | 
Cc1ccc(-n2c(=O)c(SC#N)c(C)n2C)cc1 [Formula I: 4-CH3 Ph, CH3, CH3, SCN, 2,3-dimethyl-5-oxo-1-(4-methylphenyl)-3-pyrazolin-4-yl thiocyanate] |  | 9.1 µM | 8.6 µM | 
CCn1c(C)c(SC#N)c(=O)n1-c1ccc(S(C)(=O)=O)cc1 [Formula I: 4-CH3 SO2 Ph, C2 H5, CH3, SCN, 2-ethyl-3-methyl-5-oxo-1-(4-methylsulfonylphenyl)-3-pyrazolin-4-yl thiocyanate] |  | 11.4 µM | 17 µM | 
Cc1c(SC#N)c(=O)n(-c2ccc(I)cc2)n1C [Formula I: 4-IPh, CH3, CH3, SCN, 2,3-dimethyl-5-oxo-1-(4-iodophenyl)-3-pyrazolin-4-yl thiocyanate] |  |  | 6.5 µM | 
CCn1c(C)c(SC#N)c(=O)n1-c1ccc([N+](=O)[O-])cc1 [Formula I: 4-NO2 Ph, C2 H5, CH3, SCN, 2-ethyl-3-methyl-5-oxo-1-(4-nitrophenyl)-3-pyrazolin-4-yl thiocyanate] |  | 2 µM | 5.7 µM | 
CCc1c(SC#N)c(=O)n(-c2ccc(OC)cc2)n1C [Formula I: 4-OMePh, CH3, C2 H5, SCN] |  | 11.9 µM | 9.3 µM | 
Cn1c(CN2CCOCC2)c(SC#N)c(=O)n1-c1ccccc1 [Formula I: Ph, CH3, MorCH2, SCN, 2-methyl-3-mopholinomethyl-5-oxo-1-phenyl-3-pyrazolin-4-yl thiocyanate] |  |  | 39.8 µM | 
Cc1c(SSc2c(C)n(C)n(-c3ccc4ccccc4c3)c2=O)c(=O)n(-c2ccc3ccccc3c2)n1C [Formula II: 2-Naphthyl, CH3, CH3, HCl, 2,3-dimethyl-1-naphthyl-5-oxo-3-pyrazolin-4-yl disulfide] |  |  |  | 3.3 µM
Cc1c(SSc2c(C)n(C)n(-c3ccc(I)cc3)c2=O)c(=O)n(-c2ccc(I)cc2)n1C [Formula II: 4-IPh, CH3, CH3, 2,3-dimethyl-5-oxo-1-(4-iodophenyl)-3-pyrazolin-4-yl disulfide] |  |  |  | 5.1 µM
Cc1c(SSc2c(C)n(C)n(-c3cccc(Cl)n3)c2=O)c(=O)n(-c2cccc(Cl)n2)n1C [Formula II: 6-Cl-2-Pyr, CH3, CH3, 2,3-dimethyl-5-oxo-1-(6-chloro-2-pyridyl)-3-pyrazolin-4-yl disulfide] |  |  |  | 4.3 µM
Cn1c(CN2CCOCC2)c(SSc2c(CN3CCOCC3)n(C)n(-c3ccccc3)c2=O)c(=O)n1-c1ccccc1 [Formula II: Ph, CH3, MorCH2, 2HCl, 2-methyl-3-morpholinylmethyl-5-oxo-1-phenyl-3-pyrazolin-4-yl disulfide] |  |  |  | 8.2 µM
